This series has as its system PAMPA double-sink, GIT-0 lipid, UV read-out. As to the kind of experiment: passive membrane permeability of hits, PAMPA, late-stage follow-up, ADME assay for GPR30 and estrogen receptor ligands, biophysical, double-sink PAMPA, aqueous buffer, pH 5.0/6.2/7.4 (AID 602462). Conditions: stronger effect = higher value; for permeability Pe pH 5.0: measured here: permeability at pH 5.0; for permeability Pe pH 6.2: measured here: permeability at pH 6.2.

Molecules are shown by their SMILES. The source made the active and inactive calls.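 The calls were made as follows: active = compounds passing through the artificial lipid membrane faster than 100 units at the neutral pH 7.4; inactive = the rest.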

In the case of `COc1cc([N+](=O)[O-])cc2c1NC(C1CC=CCC1)C1CC=CC21` (stereo unspecified), the permeability Pe pH 7.4 is 117 10^-6 cm/s, the permeability Pe pH 5.0 was 44 10^-6 cm/s and the permeability Pe pH 6.2 was 120 10^-6 cm/s.
Regarding `CC(=O)c1ccc2c(c1)[C@@H]1C=CC[C@@H]1[C@H](c1cc3c(cc1Br)OCO3)N2`, the permeability Pe pH 7.4 was 0 10^-6 cm/s (inactive), the permeability Pe pH 5.0 was 0 10^-6 cm/s and the permeability Pe pH 6.2 was 0 10^-6 cm/s.
